melting point [°C] | SMILES
> 250 | CS(=O)(=O)Nc1cc2oc(N)c(C(N)=O)c(=O)c2cc1Oc1ccccc1
207 to 209 | CCCc1cc(N2CCN(c3ccncc3)CC2)ccc1OCCCC(=O)O
213 to 215 | CNC(=O)c1cc(=O)c(-c2ccc(OC)c(OC)c2)co1
241 to 242 | O=C(O)Cc1ccc2oc(-c3ccc(Cl)cc3)nc2c1
171 to 173 | O=C(NO)c1ccccc1Nc1c(Cl)cccc1Cl
210 to 212 | O=C(Nc1ccc(OC(F)(F)F)cc1)NC1CCN(C(=O)c2ccncc2)CC1
198 to 200 | COC(=O)c1ccc(C(=O)C#Cc2cc(-c3cccs3)c(OC)cc2OC)cc1
193 | C=C(C)COc1ccc(Br)cc1CN(CC)c1ccc(C(=O)NS(=O)(=O)c2ccccc2)cn1
278 to 280 | N#Cc1cc(-c2ccc(Cl)cc2)c[nH]c1=O
158 | Cc1ccc(N)cc1Nc1ncc(-c2ccncc2)o1
118 to 120 | O=c1ccc2ccc(OCC(O)CO)cc2o1 (stereo unspecified)
136 | CCOC(=O)c1ccc(Cn2c(NC3CCN(C(=O)OCC)CC3)nc3ccccc32)o1
146 to 150 | Cc1ccc(CC(=O)c2sccc2S(=O)(=O)Nc2onc(C)c2Br)cc1
208 to 211 | COc1ccc2cc(C(=O)O)oc2c1
226 to 228 | CCc1nn(Cc2nnc(N)o2)c(CC)c1Oc1cc(Cl)cc(Cl)c1
208 to 210 | Cc1cc(C)c(Nc2nc(C)ccc2S(=O)(=O)c2ccc(OCc3ccccc3C#N)cc2)c(C)c1
70 to 80 | COc1ccc(C(O)c2cccc(OCc3ccc4ccccc4n3)c2)cc1 (stereo unspecified)
195 to 197 | O=C(Nc1cc2c(cc1C(=O)c1ccccc1)OCO2)c1ccccc1

The next lines start with the compound.

SMILES | melting point [°C]
CCCCC(C)(CC)C(O)C(Oc1ccc(-c2ccccc2)cc1)n1cncn1 (stereo unspecified) | 120 to 122
CCSc1ccc2c3c([nH]c2c1)CCCCC3C (stereo unspecified) | 44
Cc1cccc(C)c1N1CC(=N)N(c2c(C)cccc2C)C1C(=O)c1ccc(Cl)cc1 (stereo unspecified) | 155 to 156
CON(O)C(=O)c1ccccc1 | 58 to 60
O=C1C(=O)c2ccccc2C2=C1SCC(CN1CCC(CO)CC1)O2 (stereo unspecified) | 200 to 202
COC(=O)C(CC(C)C)NC(=O)C(C)NC(=O)OCc1ccccc1 (stereo unspecified) | 65 to 68
CCCCCCCCCCCCCCCCOCC(CO)Oc1cc(-c2ccccc2)on1 (stereo unspecified) | 45.5 to 46.5
NCc1ccccc1CC(=O)O | 151 to 155
COc1ccc(C(=O)Nc2nc3ccc(N(C)C)cc3c(NCc3ccco3)c2C#N)cc1 | 195
O=C1CSC(C(=O)O)Cc2cc3c(cc21)OCO3 (stereo unspecified) | 234 to 235
CCCCCCCCC(=O)NCc1ccc(C(=O)O)cc1 | 178 to 180
CC(C)(C)OC(=O)NC1CCCCc2cc(OCC3CCCCC3)c(Br)cc21 (stereo unspecified) | 142 to 144
CCCCCCCCCCCCCCCCCCCCCCC(NC(C)=O)(C(=O)OCC)C(=O)OCC | 79 to 80
C#Cc1cn(C2CC(OC(=O)C(C)(C)C)C(COC(=O)C(C)(C)C)O2)c(=O)[nH]c1=O (stereo unspecified) | 151
COc1ccc(C=NO)c(OC)c1C | 110 to 111
Cc1cc(OC(F)F)nc(N)n1 | 136 to 137
COc1ccc2c(c1)NC(C)(C)C=C2C | 67 to 69
O=C1NC(=O)C(N(Cc2ccc(Br)cc2)c2ccc(CCNCC(O)COc3ccc(OCc4ccccc4)cc3)cc2)S1 (stereo unspecified) | 50 to 52
CC(C)(/C=C/I)C(=O)Nc1ccc(Cl)cc1 | 145 to 146
Cc1nn(-c2cccc(C(F)(F)F)c2)cc1C(=O)O | 166 to 168
CC(C)(OCc1nn(C2CCCc3ccccc32)c2ccccc12)C(=O)O (stereo unspecified) | 132 to 134
O=C(O)C#CC(O)(c1ccc(OCc2ccc3ccccc3n2)cc1)c1ccc(OCc2ccc3ccccc3n2)cc1 | 169 to 172
CC12CC3(C)CC(Br)(C1)CC(Br)(C2)C3 | 115 to 116

From a melting point compilation (Tetko et al.; mined from patent text by program, amines drawn as free bases though some values may be those of a salt)
